Values after ≈ are worked out from the molar mass of the structure shown. Values belong to the compound of their own block, whether it stands above or below them.
Legend:
Leishmania major = assay: Anti-leishmanial activity against Leishmania major; type: functional, organism-based
[1] = Inhibition of Trypanosoma brucei trypanopain
Plasmodium falciparum [2] = assay: Inhibition of Plasmodium falciparum GST; details: concentration not given here
Plasmodium falciparum [3] = assay: Anti-parasitic activity against chloroquine-susceptible Plasmodium falciparum 3D7 assessed as reduction in parasite maturation at 50 ug/ml; type: functional
Plasmepsin II = Plasmepsin II (Plasmodium falciparum, UniProt P46925); assay: (§1) Inhibition of Plasmodium falciparum plasmepsin 2
Plasmepsin II, sequence (P46925 whole entry): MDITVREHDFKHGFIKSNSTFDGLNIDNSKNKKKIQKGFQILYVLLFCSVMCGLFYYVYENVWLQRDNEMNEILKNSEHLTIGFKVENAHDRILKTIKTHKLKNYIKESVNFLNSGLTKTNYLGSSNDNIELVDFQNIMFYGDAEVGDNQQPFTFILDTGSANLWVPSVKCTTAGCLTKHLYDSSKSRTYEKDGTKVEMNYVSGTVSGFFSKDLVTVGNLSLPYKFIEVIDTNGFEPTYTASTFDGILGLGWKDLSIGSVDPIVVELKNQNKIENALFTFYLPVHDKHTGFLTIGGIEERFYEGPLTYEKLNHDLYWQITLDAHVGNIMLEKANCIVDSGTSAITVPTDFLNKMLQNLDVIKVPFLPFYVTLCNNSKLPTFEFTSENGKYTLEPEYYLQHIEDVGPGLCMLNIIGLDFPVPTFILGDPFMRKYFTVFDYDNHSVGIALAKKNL

Enterovirus = assay: Antiviral activity against Rhinovirus infected in human HeLa cells; type: functional, organism-based
[4] = Cytotoxicity against human HeLa cells; type: cell-based
Plasmodium falciparum [5] = assay: Anti-parasitic activity against chloroquine-susceptible Plasmodium falciparum 3D7 assessed as reduction in parasite maturation; type: functional
[6] = Selectivity index, ratio of cytotoxicity for human HeLa cells to IC50 for anti-parasitic activity against chloroquine-resistant Plasmodium falciparum W2; type: toxicity, cell-based; details: read-out: Selectivity Index
[7] = Inhibition of Trypanosoma cruzi trans-sialidase
Leishmania amazonensis [8] = assay: Anti-leishmanial activity against Leishmania amazonensis promastigotes; type: functional; details: read-out: ED50
Leishmania amazonensis [9] = assay: Anti-leishmanial activity against Leishmania amazonensis intracellular amastigotes; type: functional; details: read-out: ED50
[10] = target: Plasmepsin II (Plasmodium falciparum) (UniProt P46925); assay: as §1; details: concentration not given here
Plasmepsin II (Plasmodium falciparum), sequence (P46925 125-453 limits assumed): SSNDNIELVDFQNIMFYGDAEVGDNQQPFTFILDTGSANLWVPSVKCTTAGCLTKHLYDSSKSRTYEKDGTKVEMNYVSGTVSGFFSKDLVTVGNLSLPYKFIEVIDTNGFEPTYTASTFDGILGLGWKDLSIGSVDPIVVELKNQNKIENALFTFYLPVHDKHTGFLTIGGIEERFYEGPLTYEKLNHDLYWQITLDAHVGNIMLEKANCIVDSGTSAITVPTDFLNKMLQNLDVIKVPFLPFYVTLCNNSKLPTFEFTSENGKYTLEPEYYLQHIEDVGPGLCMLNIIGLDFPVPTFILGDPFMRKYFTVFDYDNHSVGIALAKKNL

[11] = Inhibition of beta-hematin formation; type: physicochemical
Leishmania donovani [12] = assay: Anti-leishmanial activity against Leishmania donovani infected in hamsters assessed as reduction in parasite load in spleen at 5 to 150 mg/kg/day, po for 6 consecutive days; type: functional
[13] = Inhibition of Plasmodium falciparum succinate-ubiquinone oxidoreductase
Leishmania donovani [14] = assay: Anti-leishmanial activity against Leishmania donovani infected in hamsters assessed as reduction in parasite load in liver at 20 mg/kg/day, ip for 6 consecutive days; type: functional
Leishmania donovani [15] = assay: Anti-leishmanial activity against Leishmania donovani infected in hamsters assessed as reduction in parasite load in liver at 5 to 150 mg/kg/day, po for 6 consecutive days; type: functional
[16] = Inhibition of Plasmodium falciparum Cytochrome b-c1 complex
Leishmania donovani [17] = assay: Anti-leishmanial activity against Leishmania donovani infected in hamsters assessed as reduction in parasite load in spleen at 20 mg/kg/day, ip for 6 consecutive days; type: functional
Plasmodium falciparum [18] = assay: Anti-parasitic activity against chloroquine-resistant Plasmodium falciparum W2; type: functional, organism-based
Plasmodium falciparum [19] = assay: Anti-parasitic activity against chloroquine-susceptible Plasmodium falciparum D6; type: functional, organism-based
[20] = Inhibition of Plasmodium falciparum falcipain
Plasmodium falciparum [21] = assay: Anti-parasitic activity against Plasmodium falciparum; type: functional
Plasmodium falciparum [22] = assay: Anti-parasitic activity against Plasmodium falciparum assessed as inhibition of parasite development from ring to schizont stage; type: functional
[23] = Inhibition of new permeation pathway in erythrocytes (unknown origin) at 20 uM by sorbitol-induced hemolysis assay; type: functional, cell-based; details: Erythrocyte
Trichophyton rubrum [24] = assay: Antimicrobial activity against Trichophyton rubrum; type: functional
Trichophyton rubrum [25] = assay: Antimicrobial activity against Trichophyton rubrum clinical isolates; type: functional
[26] = Inhibition of Saccharomyces cerevisiae chitin synthase-1
Trichophyton rubrum [27] = assay: Antimicrobial activity against Trichophyton rubrum with deltaTruMDR2 mutation; type: functional
Trichophyton rubrum [28] = assay: Antimicrobial activity against wild type Trichophyton rubrum MYA3108; type: functional
[29] = Inhibition of Trichophyton rubrum FAS
[30] = Inhibition of Saccharomyces cerevisiae beta-1,3-glucan synthase

IC50 (Leishmania major): 4.54 µM
Structure (SMILES): COc1ccc(/C=C/C(=O)c2ccccc2O)c(OC)c1

Structure (SMILES): O=C(/C=C/c1cc2ccccc2nc1Cl)c1ccc(Cl)c(Cl)c1Cl
IC50 [1]: 240 nM

inhibition (Plasmodium falciparum [2]): 84%
Structure (SMILES): O=C(/C=C/c1ccc(Cl)cc1)c1ccc(N2CCCCC2)cc1

MIC (Plasmodium falciparum [3]): 50 µg/mL (≈ 111 µM)
Structure (SMILES): Cc1cccc(C(=O)/C=C(\I)c2cc3ccccc3nc2Cl)c1O

inhibition (Plasmodium falciparum [2]): 84%
Structure (SMILES): COc1ccc(/C=C/C(=O)c2ccc(N3CCCC3)cc2)cc1

IC50 (Plasmepsin II): 6 µM
Structure (SMILES): COc1ccc(C(=O)/C=C/c2ccc(C(F)(F)F)cc2)c(OC)c1

IC50 (Leishmania major): 4 µM
Structure (SMILES): O=C(/C=C/c1ccc(O)cc1)c1ccccc1 [4-HYDROXYCHALCONE]

IC50 (Enterovirus): 0.03 µg/mL (≈ 0.0914 µM)
Structure (SMILES): CCOc1cc(O)c(C(=O)/C=C/c2ccc(OC)cc2)c(OC)c1
CC50 [4]: 30 µg/mL (≈ 91.4 µM)

MIC (Plasmodium falciparum [5]): 10 µg/mL (≈ 23.6 µM)
Structure (SMILES): O=C(/C=C/c1cc2ccccc2nc1Cl)c1cc(Br)cc(Cl)c1O

Structure (SMILES): COc1ccc(/C=C/C(=O)c2ccccc2)cc1S(=O)(=O)N1CCOCC1
selectivity ratio [6]: 9

IC50 [7]: 2500 nM
Structure (SMILES): Cc1ccc(S(=O)(=O)Nc2cccc(C(=O)/C=C/c3ccc(O)c(O)c3)c2)cc1

EC50 (Leishmania amazonensis [8]): 0.5 µg/mL (≈ 1.85 µM)
EC50 (Leishmania amazonensis [9]): 24 µg/mL (≈ 88.8 µM)
Structure (SMILES): COc1cc(O)c(C(=O)/C=C/c2ccccc2)c(O)c1

inhibition [10]: 87%
Structure (SMILES): COc1cc(/C=C/C(=O)c2ccc(NC(=O)Nc3cccc(C(=O)/C=C/c4cc(OC)c(OC)c(OC)c4)c3)cc2)cc(OC)c1OC

MIC (Plasmodium falciparum [5]): 10 µg/mL (≈ 21.4 µM)
Structure (SMILES): CCOc1ccc2nc(Cl)c(/C=C/C(=O)c3cc(Br)cc(Cl)c3O)cc2c1

IC50 [11]: 500 nM
Structure (SMILES): O=C(/C=C/c1cccnc1)c1ccc(NS(=O)(=O)c2cc(Cl)ccc2Cl)cc1

IC50 [13]: ≥ 100 µM
IC50 [16]: 10.8 µM
Structure (SMILES): C=CC(C)(C)c1cc(/C=C/C(=O)c2ccc(O)cc2)c(OC)cc1O [LICOAGROCHACONE A]
inhibition (INH) (Leishmania donovani [12]): >65%
inhibition in vivo at 20 mg/kg/day (Leishmania donovani [14]): > 96%
inhibition (INH) (Leishmania donovani [15]): >65%
inhibition in vivo at 20 mg/kg/day (Leishmania donovani [17]): > 96%

Structure (SMILES): O=C(/C=C/c1cnc2ccccc2c1)c1cc(Cl)ccc1Cl
IC50 (Plasmodium falciparum [18]): 200 nM
IC50 (Plasmodium falciparum [19]): 200 nM

IC50 [20]: 19 µM
Structure (SMILES): COc1cc2cc(/C=C/C(=O)c3ccc(Cl)cc3Cl)cnc2cc1OC

Structure (SMILES): O=C(/C=C\c1ccnc2ccccc12)c1cc(Cl)ccc1Cl
IC50 (Plasmodium falciparum [18]): 200 nM
IC50 (Plasmodium falciparum [19]): 200 nM

IC50 [11]: 480 nM
Structure (SMILES): COc1ccc(/C=C/C(=O)c2ccc(NS(=O)(=O)c3cc(Cl)ccc3Cl)cc2)c(OC)c1OC

MIC (Plasmodium falciparum [22]): 2.07 µM (≈ 1.21 µg/mL)
Structure (SMILES): COc1cc2c(cc1/C=C/C(=O)c1ccccc1)[C@H]1CC[C@]3(C)[C@@H](Oc4cc(OC)c(OC)c(OC)c4)CC[C@H]3[C@@H]1CC2
GI50 (Plasmodium falciparum [21]): < 5 µM
inhibition [23]: > 70%

IC50 (Plasmepsin II): 6 µM
Structure (SMILES): COc1ccc(C(=O)/C=C/c2ccc(F)cc2F)c(OC)c1

MIC (Trichophyton rubrum [24]): 12.5 µg/mL (≈ 39.2 µM)
MIC50 (Trichophyton rubrum [25]): 12.5 µg/mL (≈ 39.2 µM)
MIC90 (Trichophyton rubrum [25]): 25 µg/mL (≈ 78.4 µM)
Structure (SMILES): COc1cc(O)c(C(=O)/C=C/c2ccccc2Cl)c(OC)c1

inhibition (Plasmodium falciparum [2]): 84%
Structure (SMILES): COc1ccc(/C=C/C(=O)c2ccc(-n3nnc4ccccc43)cc2)cc1

IC50 [7]: 900 nM
Structure (SMILES): Cc1ccc(S(=O)(=O)Nc2ccc(C(=O)/C=C/c3ccc(O)c(O)c3)cc2)cc1

Structure (SMILES): O=C(/C=C/c1ccccc1)c1ccccc1 [CHALCONE]
IC50 [26]: 0.02 µg/mL (≈ 0.096 µM)
MIC (Trichophyton rubrum [27]): 1.9 µg/mL (≈ 9.12 µM)
MIC (Trichophyton rubrum [28]): 7.5 µg/mL (≈ 36 µM)
IC50 [29]: 68.23 µg/mL (≈ 328 µM)
IC50 [30]: 0.14 µg/mL (≈ 0.672 µM)

— ChEMBL document CHEMBL3611995, “Chalcone scaffolds as anti-infective agents: structural and molecular target perspectives” (Eur J Med Chem, 2015)
